Measurements published in patent US10150795B2, “Peptide having antimicrobial activity against pathogens and antimicrobial peptide composition comprising the same” (Hankuk University of Foreign Studies Research & Business …, priority 2016, dated 2018).
Ends that are not written are not given here.

Assays:
in vitro [1] = format: cell-based; details: mouse
Method: (§1) A cytotoxicity experiment was performed by a test method using a Cyto X™ cell viability assay kit (LPS SOLUTION). A 96-well cell culture plate was purchased from Corning, and mammalian cell lines were purchased from the American Type Culture Collection (ATCC). Also, the CytoX™ cell viability assay kit was purchased from LPS SOLUTION.
(§2) As an experimental method, stored frozen cells were thawed, cultured in a DMEM or RP 11640 medium supplemented with 10% FBS, and then sub-cultured at intervals of 2 to 3 days until a density of the cells reached 80 to 90%. For this experiment, the cells were detached by treating the cells with trypsin-EDTA, and then divided into wells of a 96-well plate so that the number of the cells amounted to 10,000 cells. Thereafter, the cells were cultured at 37° C. for 24 hours in a CO2 incubator. Each of the prepared peptides was diluted with DMSO to concentrations of 10, 1, 0.1, 0.01, and 0.001 mM, and then diluted at 1:100 by adding 1 μl of DMSO or each of the prepared peptides to each well. Then, the cells were cultured at 37° C. for 24 hours in a CO2 incubator. To measure cytotoxicity, 10 μl of each of the peptides prepared using the Cyto X™ cell viability assay kit (LPS SOLUTION) was added to each well. The cells were cultured at 37° C. for 1 to 4 hours in a CO2 incubator, and an optical density was measured at 450 nm using a microplate reader. Then, the measured optical density was calculated as a percentage of a value measured for DMSO, and a graph was plotted using GraphPad Prism 5. Then, an IC50 value was calculated. When each of the IC50 values of the four peptides in each cell line was greater than or equal to 10 μM, the peptides were judged to have no general cytotoxicity.

in vitro [2] = format: cell-based
Method: as §1, §2

CHO-K1 cell line = test: in vitro; format: cell-based
Method: as §1, §2

[3] = test system: Listeria innocua MC2 KCTC 3658, Staphylococcus aureus ATCC 6538, Pseudomonas aeruginosa ATCC 27853, Salmonella ATCC 19430, Escherichia coli KCTC 1682; test: Minimal inhibitory concentration, standard broth microdilution method; format: cell-based; details: five strains, 37° C., 12 hours
Method: An antimicrobial assay was performed by measuring a minimal inhibitory concentration (MIC) value using a standard broth microdilution method. The antimicrobial activity of each of the peptides was measured using two gram-positive bacteria (Listeria innocua MC2 KCTC 3658 and Staphylococcus aureus ATCC 6538) and three gram-negative bacteria (Pseudomonas aeruginosa ATCC 27853, Salmonella ATCC 19430, and Escherichia coli KCTC 1682). 50 μl of each of the five bacterial strains were prepared, mixed with 5 ml of 3.7% BHI, and then cultured overnight under conditions of 37° C. and 240 rpm. Thereafter, 50 μl of each of the cultured bacterial strains was mixed with 5 ml of 3.7% BHI, and cultured for 2 hours under conditions of 37° C. and 240 rpm. Each of the cultured bacterial strains was diluted with a 0.037% BHI solution to a concentration of 1×10^8 CFU/ml.
A dissolved synthetic peptide was diluted twofold, stepwise, with BHIB in a 96 well-plate. […] After the incubation, a change in optical density at 600 nm was measured using Microplate Reader Multiskan FC (Thermo Scientific, Waltham, Mass., USA), and a range of the MIC was set as the lowest concentration of a peptide in which the growth of bacteria starts to be inhibited. […]

[4] = at a concentration of 200 μM or less; cited from earlier work
[5] = test system: gram-positive and gram-negative bacteria; details: cited from earlier work

Substance: H-NKVKEWIKYLKSLFK-OH [YK5, NKVKE WIKYL KSLFK]
- IC50 at 24 h (in vitro [1]): > 100 µM
- IC50 at 24 h (in vitro [2]; African green monkey): > 100 µM
- IC50 at 24 h (in vitro [2]; Chinese hamster): 57 µM
- IC50 at 24 h (in vitro [2]; human): > 100 µM
- IC50 at 24 h (in vitro [2]; mouse): > 100 µM
- cytotoxicity compared with YK3 (CHO-K1 cell line): lower cytotoxicity than the YK3 peptide
- antibacterial activity (MIC experiment, FIG. 2) [3]: effective antibacterial activity against the five strains when used at a low concentration

Substance: NKVKEWIKYLKSKFK [YK8, NKVKE WIKYL KSKFK]
- IC50 at 24 h (in vitro [1]): > 100 µM
- IC50 at 24 h (in vitro [2]; African green monkey): > 100 µM
- IC50 at 24 h (in vitro [2]; Chinese hamster): 71.9 µM
- IC50 at 24 h (in vitro [2]; human): > 100 µM
- IC50 at 24 h (in vitro [2]; mouse): > 100 µM
- cytotoxicity compared with YK3 (CHO-K1 cell line): lower cytotoxicity than the YK3 peptide

Substance: NKVKEWIKYLKSLFS [YK3, NKVKE WIKYL KSLFS]
- IC50 at 24 h (in vitro [2]; African green monkey): 99.1 µM
- IC50 at 24 h (in vitro [2]; Chinese hamster): 56.2 µM
- IC50 at 24 h (in vitro [2]; human): 94 µM

Substance: NKVKEWWKWLKKL [YK11, NKVKE WWKWL KKL]
- IC50 at 24 h (in vitro [1]): 96.6 µM
- IC50 at 24 h (in vitro [2]; African green monkey): 83.7 µM
- IC50 at 24 h (in vitro [2]; Chinese hamster): 86.8 µM
- IC50 at 24 h (in vitro [2]; human): > 100 µM
- IC50 at 24 h (in vitro [2]; mouse): > 100 µM
- cytotoxicity compared with YK3 (CHO-K1 cell line): lower cytotoxicity than the YK3 peptide

Substance: NTVKETIKYLKSLFSHAFEVVKT (NTVKETIKYLKSLFSHAFEVVKT; LPcin-1 (23mer)) [LPcin-I, wild-type lactophoricin from cow milk, 23 amino acid residues, carboxyl terminal 113 to 135 region of PP3]
- hemolytic action [4]: does not have a hemolytic action
- growth inhibition / antimicrobial functionality [5]: inhibits the growth of both gram-positive and gram-negative bacteria
